Test results taken from patent US8658692B2, “Method of preparation an inclusion-complex comprising hydrophobic physiological activation material including with cyclodextrin and its use” (Macrocare Tech., Ltd., priority 2007, dated 2014).

What was measured:
human fibroblasts [1] = experiment: Collagen synthesis / collagen proliferation performance (3H-proline incorporation, RCB); assay type: cell-based; conditions: for collagen proliferation, result in words (Table 2, FIG. 4): concentrations 10^−6 to 10^−4
Protocol: In order to determine degree of collagen synthesis, human fibroblasts were cultured in a 24-well microtiter plate. The same sample as used for cell proliferation was diluted in a rate of 1/10 in a culture medium and the diluted sample was added to the cultured fibroblasts. The samples used herein were vitamin C, genistein, cyclodextrin, and the inclusion-complexes prepared in Examples 1 and 2.
At 3 days after culture, 0.5 ml of 10% FBS containing DMEM medium was added to each well, followed by adding 10 μCi of L[2,3,4,5-3H]-proline thereto. After 24 hours, the medium and the cells were collected from the well and fed into a 5% trichloroacetic acid (TCA) solution to rinse the product. The rinsed product was plated in two test tubes. 1 unit/μl of Type I collagenase was added to one of the test tubes and cultured at 37° C. for 90 minutes, while the other test tube was stored at 4° C.
After that, adding 0.05 ml of 50% TCA to both the test tubes and leaving the same at 4° C. for 20 minutes, each of the test tubes was subjected to centrifugation at 12,000 rpm for 10 minutes. The resultant supernatant and precipitate were detected using a liquid scintillation counter (LSC) to measure decay per minute (dpm) values. The measured dpm values were used to calculate relative collagen biosynthesis (RCB) values according to the following equation 1: RCB=collagen dpm value/{[([…])×5.4]+collagen dpm value}×100 Equation 1

human fibroblasts [2] = experiment: Fibroblast proliferation performance (MTT); assay type: cell-based; conditions: 4 days culture
Protocol: In order to evaluate cell proliferation performance of the inclusion-complex according to the present invention, fibroblast proliferation performance was determined.
More particularly, human fibroblasts were cultured in Dulbecco s Modified Eagle's medium (DMEM) containing 2.5% fetal bovine serum (FBS) and the cultured cells were plated in a 96-well microtiter plate at 5,000 cells/well.
Each of the inclusion-complex produced in Example 1 (an inclusion-complex of β-cyclodextrin/geniste with a genistein concentration of 5%), the inclusion-complex produced in Example 2 (an inclusion-complex of hydroxypropyl β-cyclodextrin/genistein with a genistein concentration of 5%) was used as a test sample. On the other hand, genistein, retinol and tocopherol, hydroxypropyl β-cyclodextrin and β-cyclodextrin, respectively, were used as controls. Each of the samples was regulated to have a final concentration of 1 mg/ml and added to the fibroblasts, followed by additional culturing of the fibroblasts for 4 days.
After completing the culture, 50 μl of 0.2% MTT (3-[4,5-dimethylthiazol-2-yl]-2,5-diphenyltetrazolium bromide) solution was added to each well, and then, cultured at 37° C. for 4 hours. The obtained formazan was dissolved in dimethyl sulfoxide (DMSO). The formazan solution was subjected to determination of absorption at 570 nm using a microplate reader.

Molecule	Collagen proliferation rate (human fibroblasts [1]; concentration 10^−4)	Collagen proliferation rate (human fibroblasts [1]; concentration 10^−5)	Collagen proliferation rate (human fibroblasts [1]; concentration 10^−6)	collagen proliferation, result in words (Table 2, FIG. 4) (human fibroblasts [1])	cell viability dependent on concentration (FIG. 2) (human fibroblasts [2])
OC[C@H]1O[C@@H]2O[C@H]3[C@H](O)[C@@H](O)[C@@H](O[C@H]4[C@H](O)[C@@H](O)[C@@H](O[C@H]5[C@H](O)[C@@H](O)[C@@H](O[C@H]6[C@H](O)[C@@H](O)[C@@H](O[C@H]7[C@H](O)[C@@H](O)[C@@H](O[C@H]8[C@H](O)[C@@H](O)[C@@H](O[C@H]1[C@H](O)[C@H]2O)O[C@@H]8CO)O[C@@H]7CO)O[C@@H]6CO)O[C@@H]5CO)O[C@@H]4CO)O[C@@H]3CO [Cyclodextrin, β-cyclodextrin]	102%	101%	102%	not greatly improved	–
hydroxypropyl β-cyclodextrin	104%	104%	101%	not greatly improved	–
O=c1c(-c2ccc(O)cc2)coc2cc(O)cc(O)c12 [Genistein]	115%	112%	105%	more excellent effects with increased concentration	increased somewhat in proportion to concentration
CC1=C(/C=C/C(C)=C/C=C/C(C)=C/CO)C(C)(C)CCC1 [retinol]	–	–	–	–	increased somewhat in proportion to concentration
O=C1O[C@H]([C@@H](O)CO)C(O)=C1O [Vitamin C]	98%	105%	106%	decreased as its concentration increased	–
tocopherol	–	–	–	–	increased somewhat in proportion to concentration
